Some test systems named below: OVCAR-5 ovarian; HT29 colon; ACHN renal; LOX IMVI melanoma; A549 NSCLC; UO-31 renal; SW-620 colon; TK-10 renal; SK-MEL-5 melanoma; SK-MEL-28 melanoma; SK-MEL-2 melanoma; SNB-19 CNS; OVCAR-3 ovarian; SF-268 CNS; NCI-H226 lung; PC-3 prostate; A498 renal; EKVX NSCLC.
Common to all, as to assay: NCI-60 cell line screen, 48 h

Values joined by “and” are separate entries in the source; they are usually repeats but may differ in a detail not shown here. Identical values can stand only once.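 Protocol summary: plate cells (96-well), add compound at 5 concentrations, incubate 48 h, interpolate endpoints linearly. GI50 marks 50% less growth. TGI: concentration producing complete growth inhibition.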

With `CCOC(=O)[C@H]1Nc2c(cccc2[N+](=O)[O-])C2c3ccccc3CC21` (some centres undefined), the TGI is > 100 µM in the assay with OVCAR-5 ovarian; 74.9 µM in the assay on HT29 colon; > 100 µM with ACHN renal; > 100 µM with LOX IMVI melanoma; > 100 µM in the assay with A549 NSCLC; > 100 µM with UO-31 renal. For the same compound, the TGI with SW-620 colon, in the assay with TK-10 renal, with SK-MEL-5 melanoma, in the assay on SK-MEL-28 melanoma, with SK-MEL-2 melanoma and in the assay on SNB-19 CNS was > 100 µM in each case. Besides, the TGI with OVCAR-3 ovarian, in the assay with SF-268 CNS and with NCI-H226 lung was > 100 µM each time.
Turning to `Fc1ccc(C(OCCN2CC3CC2CN3)c2ccc(F)cc2)cc1` (centres undefined), the TGI in the assay on PC-3 prostate, in the assay on ACHN renal, in the assay with LOX IMVI melanoma, in the assay with A498 renal, with SW-620 colon and with TK-10 renal was > 100 µM each time. The TGI in the assay with SK-MEL-5 melanoma was 30.9 µM; in the assay with SK-MEL-28 melanoma, 52.3 µM; in the assay on SK-MEL-2 melanoma, 38.1 µM; in the assay with OVCAR-3 ovarian, > 100 µM; in the assay on SF-268 CNS, > 100 µM; in the assay on NCI-H226 lung it was > 100 µM.
For `Clc1ccc(-c2nnc(-c3nsc4ccccc34)o2)cc1`, the TGI in the assay with EKVX NSCLC, in the assay with OVCAR-5 ovarian, in the assay with HT29 colon, in the assay with ACHN renal, in the assay on LOX IMVI melanoma and in the assay on A549 NSCLC was > 100 µM each time. Also, the TGI in the assay on UO-31 renal was 47.5 µM; in the assay on SW-620 colon it was > 100 µM; in the assay on TK-10 renal it was 51.2 µM; in the assay with SK-MEL-5 melanoma, > 100 µM; in the assay with SK-MEL-28 melanoma, > 100 µM; in the assay on SK-MEL-2 melanoma it was > 100 µM. Moreover, the TGI was > 100 µM with SNB-19 CNS, 32 µM in the assay with OVCAR-3 ovarian and 66.6 µM in the assay with SF-268 CNS.
For the compound `c1csc(C(NC2=NCCO2)C2CC2)c1` (centres undefined), the TGI with EKVX NSCLC, in the assay on OVCAR-5 ovarian, in the assay with PC-3 prostate, with HT29 colon, with ACHN renal and in the assay with LOX IMVI melanoma was > 100 µM each time. The TGI in the assay on A498 renal, in the assay on A549 NSCLC, in the assay on UO-31 renal, in the assay on SW-620 colon, with SK-MEL-5 melanoma and in the assay on SK-MEL-2 melanoma was > 100 µM each time. Besides, the TGI with SNB-19 CNS and with NCI-H226 lung was > 100 µM each time.
In the case of `CO/C(=N\N=C(/c1ccccc1)C(F)(F)F)c1ccncc1`, the TGI in the assay on OVCAR-5 ovarian was > 100 µM; in the assay on PC-3 prostate, > 100 µM; in the assay with HT29 colon, > 100 µM; in the assay on A498 renal, > 100 µM; in the assay with UO-31 renal, > 100 µM; with SK-MEL-5 melanoma it was 57 µM. In addition, the TGI with SK-MEL-28 melanoma was > 100 µM; in the assay with SK-MEL-2 melanoma it was > 100 µM; in the assay on SNB-19 CNS it was > 100 µM; with OVCAR-3 ovarian, > 100 µM; with NCI-H226 lung, 77.4 µM.
Regarding `N/C(=N\N=C/c1cc([N+](=O)[O-])cc([N+](=O)[O-])c1O)NO`, the TGI with EKVX NSCLC is > 100 µM; in the assay with OVCAR-5 ovarian, > 87.3 µM; in the assay on HT29 colon, > 100 µM; in the assay on LOX IMVI melanoma it was > 100 µM; in the assay with A498 renal it was > 100 µM; with A549 NSCLC it was > 100 µM. The TGI with UO-31 renal is > 100 µM; in the assay with SW-620 colon it was > 100 µM; with SK-MEL-5 melanoma, > 38.4 µM; with SK-MEL-28 melanoma it was > 100 µM; in the assay on SK-MEL-2 melanoma, > 100 µM; in the assay with SNB-19 CNS, > 100 µM. The TGI with OVCAR-3 ovarian, in the assay on SF-268 CNS and in the assay on NCI-H226 lung was > 100 µM in each case.
On to `CCN1C(=O)N2C(OC)c3ccccc3C(Br)C2(OC)C1=O` (centres undefined), for which the TGI in the assay on OVCAR-5 ovarian, in the assay with LOX IMVI melanoma, in the assay with A498 renal, with UO-31 renal, in the assay with SW-620 colon and in the assay on TK-10 renal was > 100 µM throughout. For the same compound, the TGI in the assay with SK-MEL-5 melanoma, in the assay on SK-MEL-28 melanoma, with SK-MEL-2 melanoma, in the assay on SNB-19 CNS, in the assay on OVCAR-3 ovarian and in the assay on NCI-H226 lung was > 100 µM throughout.
`Cc1cc(C)c(S(=O)(=O)N(CCCN)OCCCN)c(C)c1`: the TGI with EKVX NSCLC, with OVCAR-5 ovarian, with PC-3 prostate, in the assay on HT29 colon, in the assay with ACHN renal and with LOX IMVI melanoma was > 100 µM in each case. Further, the TGI with A549 NSCLC, in the assay on UO-31 renal, with SW-620 colon, in the assay with TK-10 renal, in the assay on SK-MEL-5 melanoma and in the assay with SK-MEL-28 melanoma was > 100 µM in each case. The TGI with SK-MEL-2 melanoma, in the assay with SNB-19 CNS, in the assay on OVCAR-3 ovarian, in the assay on SF-268 CNS and in the assay on NCI-H226 lung was > 100 µM throughout.
In the case of `Clc1cccc(C2SCc3nc4ccccc4n32)c1` (centres undefined), the TGI in the assay with EKVX NSCLC is 52.4 µM; with OVCAR-5 ovarian it was 95.6 µM; in the assay with HT29 colon, 67.2 µM; with ACHN renal, 99.2 µM; in the assay on LOX IMVI melanoma it was 30.8 µM; in the assay with A549 NSCLC it was > 100 µM. For the same compound, the TGI in the assay with SW-620 colon was > 100 µM; with TK-10 renal, 63.9 µM; in the assay with SK-MEL-28 melanoma, 46.2 µM; in the assay with OVCAR-3 ovarian it was 29.1 µM; in the assay with SF-268 CNS it was > 100 µM; in the assay on NCI-H226 lung it was 33.7 µM.
On to `O=c1[nH]c(=S)[nH]c2c(C3OC(CO)C(O)C3O)nsc12` (centres undefined), for which the TGI in the assay with EKVX NSCLC, with OVCAR-5 ovarian, in the assay on PC-3 prostate, in the assay on HT29 colon, with LOX IMVI melanoma and with A498 renal was > 100 µM each time. The TGI in the assay on A549 NSCLC, in the assay with SW-620 colon, in the assay on TK-10 renal, with SK-MEL-5 melanoma, with SK-MEL-28 melanoma and with SK-MEL-2 melanoma was > 100 µM each time. The TGI with OVCAR-3 ovarian, in the assay with SF-268 CNS and in the assay with NCI-H226 lung was > 100 µM in each case.
On to `CC1=NN(C(=O)c2ccc(C)cc2)C(=O)C1N=Nc1ccccc1C(=O)O` (centres undefined), for which the TGI in the assay on EKVX NSCLC, with OVCAR-5 ovarian, in the assay with HT29 colon, in the assay with LOX IMVI melanoma, with A498 renal and in the assay on A549 NSCLC was > 100 µM each time. Further, the TGI with UO-31 renal, in the assay on SW-620 colon, in the assay on SK-MEL-5 melanoma, in the assay with SK-MEL-28 melanoma, in the assay with SK-MEL-2 melanoma and in the assay with SNB-19 CNS was > 100 µM each time. Further, the TGI in the assay on OVCAR-3 ovarian, in the assay with SF-268 CNS and in the assay with NCI-H226 lung was > 100 µM each time.
As to `CC(=O)Nc1cc(/C=C\C(=O)N2CC(CCl)c3c2cc(N)c2ccccc32)n(C)n1` (centres undefined), the TGI was > 100 µM in the assay with PC-3 prostate; 0.0211 µM in the assay on A498 renal; 0.0214 µM in the assay on UO-31 renal; > 100 µM with SW-620 colon; > 100 µM in the assay with TK-10 renal; 0.0382 µM and 0.177 µM in the assay with SK-MEL-28 melanoma. Moreover, the TGI was 0.0416 µM and 0.0479 µM in the assay on SK-MEL-2 melanoma; > 100 µM with OVCAR-3 ovarian; 0.211 µM in the assay with SF-268 CNS. Besides, the GI50 with SNB-19 CNS is 0.0277 µM; in the assay with NCI-H226 lung it was 0.0173 µM.

These data come from PubChem BioAssay (NCI).
